Reference: patent US9889099B2, “Method and composition for enhancing milk production” (LAND O'LAKES, INC., priority 1999, dated 2018)

How the values were obtained:
lactating cows = assay: Example 1: feeding lactating cows control ration plus about 100 g sorbitol per day, 28 day test period; type: in vivo, Holstein cows
Source text: In this example, twenty Holstein cows averaging about thirty days in milk each, and thus in early lactation, were arranged in a randomized complete block design. Ten of the twenty cows were orally fed a control ration, and the other ten cows were orally fed a test ration that consisted of the control ration plus about 100 grams of sorbitol per day per cow. The cows were blocked by parity milk production, based upon the level of milk production by individual cows, after being in milk for fifteen to twenty days. After being blocked by parity milk production, the cows were randomly allotted to the control ration feeding or to the test ration feeding. The components of the control ration used in this example are shown in Table 1: The control ration was placed in the feeding troughs of the cattle once daily in the morning. When the test ration was to be provided to the test cattle, sorbitol was top dressed and lightly mixed into the control ration in the feeding trough of each cow being supplied with the test ration dosage of about 100 grams of sorbitol per cow per day, about one hour after the control ration was placed in the feeding trough. Then, the control ration and the test ration were lightly mixed in front of the cows six times per day to encourage additional feed ingestion by the cattle. Leftover rations from the previous day's feeding were collected and weighed from each feeding trough prior to feeding the test cattle the next day. The cows received a sufficient amount of the control ration to ensure that at least about ten weight percent, based upon the amount of control ration provided at the beginning of each day, remained per day for each test cow. The amount of sorbitol that was top dressed in the control ration to form the test ration was adjusted upward to account for the excess of control ration provided to ensure that the cows ingested the test ration dosage of about 100 grams of sorbitol per cow per day. Feed refusals were measured daily, and water was supplied ad libitum. […] Each cow was milked three times daily and the weight of produced milk was recorded at each milking. The milk was sampled once per day (⅓ of the sample volume from each milking) and was analyzed for protein, fat, lactose, and total solids, in accordance with the property determination and characterization techniques presented above. The milk production and milk component data was analyzed using the general linear model (GLM) statistical procedure of SAS® statistical analysis software for a randomized, complete block design that included both the particular feed regimen and the week of the test period in the model statement. […] Additionally, all data was analyzed to determine the mean of the data for each variable under consideration over the entire experimental period. […]

[1] = Passage of orally fed sorbitol through the rumen into the abomasum; type: in vivo, ruminant; settings: within about six to about eight hours after entering the rumen; based on total amount orally fed

share of orally fed sugar alcohol passing through the rumen into the abomasum [1]: at least 50 weight percent
SMILES: OC[C@@H](O)[C@@H](O)[C@H](O)[C@@H](O)CO [sorbitol]
Dry Matter Intake (lactating cows; about 100 g sorbitol/day/cow mixed with control ration, mean over 28 days, control 47.2, P 0.54): 45.6 pounds/day/cow
Milk Production (lactating cows; about 100 g sorbitol/day/cow mixed with control ration, mean over 28 days, control 88.9, P 0.02): 93.5 pounds/day/cow
difference in dry matter intake between control ration and test ration (FIG. 1) (lactating cows; about 100 g sorbitol/day/cow, P 0.54): statistically insignificant
daily milk production at each weekly data point versus control cows (FIG. 2) (lactating cows; about 100 g sorbitol/day/cow, weekly means over four weeks): significant increase
